Results: US20250154163A1, “Pyrimidinone-Containing 17-Beta-Hydroxysteroid Dehydrogenase Type 13 Inhibitors” (ENANTA PHARMACEUTICALS, INC., priority 2023, published 2025)

Tested on: C57BL/6J mice fed CDAA-HF
Test: Fibrotic markers in livers of mice fed choline deficient high fat (CDAA-HF) diet
Assay type: in vivo, mouse
Conditions: 20, 60 and 200 mg/kg oral gavage daily, final week of 4 weeks CDAA-HF, *p<0.05 vs vehicle
Experimental: The choline deficient amino acid defined diet (CDAA) is a well-characterized model of […] associated liver inflammation and fibrosis. The CDAA-HF mouse model is commonly used to preclinically evaluate potential therapeutic targets for non-alcoholic steatohepatitis (NASH). To investigate the effect of Compound 26 (Example 26; 20, 60, and 200 mg/kg, oral gavage, daily) on fibrotic gene and protein parameters, 10 week-old male C57BL/6J mice were fed CDAA-HF (choline deficient, L-amino acid defined, high fat diet; A16092201) for 4 weeks, with Compound 26 treatment only during the final week of the study. On the last day of the study, mice were euthanized by CO2 asphyxiation for tissue collection, and blood was collected by cardiac puncture. Livers were rapidly removed and frozen in liquid nitrogen for downstream mRNA and protein isolation. […] Statistical analysis was performed with One Way ANOVA. *p<0.05 vs vehicle treated (FIG. 1). Col1a1=Collagen; TGFB2=transforming growth factor beta 2. All procedures performed on animals were in accordance with regulations and established guidelines and were reviewed and approved by an Institutional Animal Care and Use Committee or through an ethical review process.

COc1ccc(-c2nc3sc4c(O)c(Cl)ccc4c3c(=O)n2Cc2cnco2)c(C2CC2)c1 [Example 26, 7-chloro-2-(2-cyclopropyl-4-methoxyphenyl)-8-hydroxy-3-(oxazol-5-ylmethyl)benzo[4,5]thieno[2,3-d]pyrimidin-4(3H)-one]
significantly decreases: liver collagen (Col1a1) mRNA (FIG. 1a) | liver TGFB2 (fibrotic cytokine) (FIG. 1b) | liver fibronectin (fibroblast activation marker) (FIG. 1c)
